#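 All cell lines were grown in 96-well plates and treated with compound for 48 hours. Here, GI50 denotes the concentration required for 50% inhibition of growth. TGI: concentration producing complete growth inhibition.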
# Key:
# Experiment in all cases: NCI-60 cell line screen, 48 h
# [1] = tested on: 786-0 renal
# [2] = tested on: A498 renal
# [3] = tested on: A549 NSCLC
# [4] = tested on: ACHN renal
# [5] = tested on: BT-549 breast
# [6] = tested on: CAKI-1 renal
# [7] = tested on: CCRF-CEM leukemia
# [8] = tested on: COLO 205 colon
# [9] = tested on: DU-145 prostate
# [10] = tested on: EKVX NSCLC
# [11] = tested on: HCC-2998 colon
# [12] = tested on: HCT-116 colon
# [13] = tested on: HCT-15 colon
# [14] = tested on: HL-60(TB) leukemia
# [15] = tested on: HOP-62 NSCLC
# [16] = tested on: HOP-92 NSCLC
# [17] = tested on: HS 578T breast
# [18] = tested on: HT29 colon
# [19] = tested on: IGROV1 ovarian
# [20] = tested on: K-562 leukemia
# [21] = tested on: KM12 colon
# [22] = tested on: LOX IMVI melanoma
# [23] = tested on: M14 melanoma
# [24] = tested on: MALME-3M melanoma
# [25] = tested on: MCF7 breast
# [26] = tested on: MDA-MB-231 breast
# [27] = tested on: MDA-MB-435
# [28] = tested on: MOLT-4 leukemia
# [29] = tested on: NCI-H226 lung
# [30] = tested on: NCI-H23 lung
# [31] = tested on: NCI-H460 lung
# [32] = tested on: NCI-H522 lung
# [33] = tested on: NCI/ADR-RES ovarian
# [34] = tested on: OVCAR-4 ovarian
# [35] = tested on: OVCAR-5 ovarian
# [36] = tested on: OVCAR-8 ovarian
# [37] = tested on: PC-3 prostate
# [38] = tested on: RPMI-8226 leukemia
# [39] = tested on: RXF 393 renal
# [40] = tested on: SF-268 CNS
# [41] = tested on: SF-295 CNS
# [42] = tested on: SF-539 CNS
# [43] = tested on: SK-MEL-2 melanoma
# [44] = tested on: SK-MEL-28 melanoma
# [45] = tested on: SK-MEL-5 melanoma
# [46] = tested on: SK-OV-3 ovarian
# [47] = tested on: SN12C renal
# [48] = tested on: SNB-19 CNS
# [49] = tested on: SNB-75 CNS
# [50] = tested on: SR leukemia
# [51] = tested on: SW-620 colon
# [52] = tested on: T-47D breast
# [53] = tested on: TK-10 renal
# [54] = tested on: U251 CNS
# [55] = tested on: UACC-257 melanoma
# [56] = tested on: UACC-62 melanoma
# [57] = tested on: UO-31 renal
smiles,measurement,setting,value
CN1CCN(Cc2ccc(NC(=O)c3cncc(C#Cc4cnc5ccc(OCC(C)(C)O)nn45)c3)cc2C(F)(F)F)CC1,GI50,[1],0.323 µM
same,TGI,[1],0.96 µM
same,GI50,[2],0.199 µM
same,TGI,[2],0.395 µM
same,GI50,[3],0.317 µM
same,TGI,[3],1.09 µM
same,GI50,[4],0.295 µM
same,TGI,[4],1.06 µM
same,GI50,[5],0.386 µM
same,TGI,[5],1.22 µM
same,GI50,[6],0.183 µM
same,TGI,[6],0.528 µM
same,GI50,[7],0.336 µM
same,TGI,[7],12.5 µM
same,GI50,[8],0.178 µM
same,TGI,[8],0.349 µM
same,GI50,[9],0.26 µM
same,TGI,[9],0.786 µM
same,GI50,[10],0.257 µM
same,TGI,[10],0.997 µM
same,GI50,[11],0.334 µM
same,TGI,[11],1.02 µM
same,GI50,[12],0.17 µM
same,TGI,[12],0.889 µM
same,GI50,[13],0.287 µM
same,TGI,[13],0.929 µM
same,GI50,[14],0.264 µM
same,TGI,[14],0.873 µM
same,GI50,[15],0.23 µM
same,TGI,[15],0.667 µM
same,GI50,[16],0.0385 µM
same,TGI,[16],0.225 µM
same,GI50,[17],0.156 µM
same,TGI,[17],0.578 µM
same,GI50,[18],0.203 µM
same,TGI,[18],0.91 µM
same,GI50,[19],0.167 µM
same,TGI,[19],1.06 µM
same,TGI,[20],1.85 µM
same,TGI,[21],0.83 µM
same,GI50,[22],0.146 µM
same,TGI,[22],0.3 µM
same,GI50,[23],0.139 µM
same,TGI,[23],0.305 µM
same,GI50,[24],0.127 µM
same,TGI,[24],0.37 µM
same,GI50,[25],0.146 µM
same,TGI,[25],0.897 µM
same,GI50,[26],0.114 µM
same,TGI,[26],0.548 µM
same,GI50,[27],0.207 µM
same,TGI,[27],0.698 µM
same,GI50,[28],0.269 µM
same,TGI,[28],1.41 µM
same,GI50,[29],0.148 µM
same,TGI,[29],1.34 µM
same,GI50,[30],0.185 µM
same,TGI,[30],0.478 µM
same,GI50,[31],0.297 µM
same,TGI,[31],0.851 µM
same,GI50,[32],0.179 µM
same,TGI,[32],0.37 µM
same,GI50,[33],1.64 µM
same,TGI,[33],4.68 µM
same,GI50,[34],0.217 µM
same,TGI,[34],1.04 µM
same,GI50,[35],0.295 µM
same,TGI,[35],1.2 µM
same,GI50,[36],0.304 µM
same,TGI,[36],1.05 µM
same,GI50,[37],0.332 µM
same,TGI,[37],1.75 µM
same,GI50,[38],0.344 µM
same,TGI,[38],1.38 µM
same,GI50,[39],0.181 µM
same,TGI,[39],0.392 µM
same,GI50,[40],0.18 µM
same,TGI,[40],0.448 µM
same,GI50,[41],0.726 µM
same,TGI,[41],2.06 µM
same,GI50,[42],0.117 µM
same,TGI,[42],0.403 µM
same,GI50,[43],0.177 µM
same,TGI,[43],0.349 µM
same,GI50,[44],0.237 µM
same,TGI,[44],0.726 µM
same,GI50,[45],0.775 µM
same,TGI,[45],2.05 µM
same,GI50,[46],0.378 µM
same,TGI,[46],1.16 µM
same,GI50,[47],0.153 µM
same,TGI,[47],0.864 µM
same,GI50,[48],0.356 µM
same,TGI,[48],1.36 µM
same,GI50,[49],0.21 µM
same,TGI,[49],0.572 µM
same,GI50,[50],0.249 µM
same,TGI,[50],0.852 µM
same,GI50,[51],0.202 µM
same,TGI,[51],0.585 µM
same,GI50,[52],0.369 µM
same,TGI,[52],1.91 µM
same,GI50,[53],0.226 µM
same,TGI,[53],0.55 µM
same,GI50,[54],0.329 µM
same,TGI,[54],1.12 µM
same,GI50,[55],0.318 µM
same,TGI,[55],1.2 µM
same,GI50,[56],0.199 µM
same,TGI,[56],0.843 µM
same,GI50,[57],0.339 µM
same,TGI,[57],1.06 µM
COc1ccc(/C=N/Nc2ccnc3cc(Cl)ccc23)cc1Cl,GI50,[2],1.72 µM
same,TGI,[2],3.22 µM
same,GI50,[3],1.77 µM
same,TGI,[3],3.57 µM
same,GI50,[4],1.95 µM
same,TGI,[4],3.42 µM
same,GI50,[6],1.68 µM
same,TGI,[6],3.1 µM
same,GI50,[7],2.14 µM
same,TGI,[7],5.93 µM
same,GI50,[8],1.82 µM
same,TGI,[8],3.37 µM
same,GI50,[14],1.96 µM
same,TGI,[14],4.79 µM
same,GI50,[16],1.38 µM
same,TGI,[16],2.95 µM
same,GI50,[17],1.99 µM
same,TGI,[17],4.28 µM
same,GI50,[18],1.53 µM
same,TGI,[18],3.01 µM
same,GI50,[19],1.91 µM
same,TGI,[19],3.71 µM
same,GI50,[21],2.08 µM
same,TGI,[21],4.32 µM
same,GI50,[24],1.9 µM
same,TGI,[24],3.54 µM
same,GI50,[26],1.93 µM
same,TGI,[26],3.55 µM
same,GI50,[27],1.79 µM
same,TGI,[27],3.39 µM
same,GI50,[28],2.2 µM
same,TGI,[28],5.35 µM
same,GI50,[31],2.04 µM
same,TGI,[31],4.03 µM
same,GI50,[32],1.69 µM
same,TGI,[32],3.3 µM
same,GI50,[34],1.83 µM
same,TGI,[34],3.56 µM
same,GI50,[35],1.85 µM
same,TGI,[35],3.49 µM
same,GI50,[37],1.64 µM
same,TGI,[37],3.12 µM
same,GI50,[38],2.2 µM
same,TGI,[38],5.24 µM
same,GI50,[39],1.75 µM
same,TGI,[39],3.21 µM
same,GI50,[40],1.9 µM
same,TGI,[40],3.69 µM
same,GI50,[41],1.79 µM
same,TGI,[41],3.36 µM
same,GI50,[42],1.8 µM
same,TGI,[42],3.26 µM
same,GI50,[43],1.79 µM
same,TGI,[43],3.33 µM
same,GI50,[44],1.75 µM
same,TGI,[44],3.21 µM
same,GI50,[45],1.77 µM
same,TGI,[45],3.21 µM
same,GI50,[46],1.82 µM
same,TGI,[46],3.27 µM
same,GI50,[47],1.75 µM
same,TGI,[47],3.44 µM
same,GI50,[48],1.93 µM
same,TGI,[48],3.73 µM
same,GI50,[49],1.55 µM
same,TGI,[49],3.06 µM
same,GI50,[50],0.707 µM
same,TGI,[50],5.51 µM
same,GI50,[51],1.9 µM
same,TGI,[51],3.76 µM
same,GI50,[53],1.74 µM
same,TGI,[53],3.12 µM
same,GI50,[54],1.74 µM
same,TGI,[54],3.37 µM
same,GI50,[55],1.69 µM
same,TGI,[55],3.29 µM
same,GI50,[56],1.76 µM
same,TGI,[56],3.27 µM
same,GI50,[57],1.68 µM
same,TGI,[57],3.1 µM

# — PubChem BioAssay (NCI)
